Data as given in PubChem BioAssay (NCI).
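Tested at 5 concentrations; 48 h exposure; 96-well plates; endpoints linearly interpolated, else capped at highest concentration. TGI marks complete inhibition of growth.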

Experiments:
Assay in all cases: NCI tumour cell line growth inhibition, 48 h
[1] = test system: 786-0 renal
[2] = test system: A549 NSCLC
[3] = test system: ACHN renal
[4] = test system: CAKI-1 renal
[5] = test system: CCRF-CEM leukemia
[6] = test system: COLO 205 colon
[7] = test system: DLD-1 colon
[8] = test system: DMS 114 small cell lung
[9] = test system: DMS 273 small cell lung
[10] = test system: EKVX NSCLC
[11] = test system: HCT-116 colon
[12] = test system: HCT-15 colon
[13] = test system: HL-60(TB) leukemia
[14] = test system: HOP-18 NSCLC
[15] = test system: HOP-62 NSCLC
[16] = test system: HOP-92 NSCLC
[17] = test system: HT29 colon
[18] = test system: IGROV1 ovarian
[19] = test system: K-562 leukemia
[20] = test system: KM12 colon
[21] = test system: KM20L2 colon
[22] = test system: LOX IMVI melanoma
[23] = test system: LXFL 529 NSCLC
[24] = test system: M14 melanoma
[25] = test system: M19-MEL melanoma
[26] = test system: MOLT-4 leukemia
[27] = test system: NCI-H226 lung
[28] = test system: NCI-H23 lung
[29] = test system: NCI-H460 lung
[30] = test system: NCI-H522 lung
[31] = test system: OVCAR-3 ovarian
[32] = test system: OVCAR-4 ovarian
[33] = test system: OVCAR-5 ovarian
[34] = test system: OVCAR-8 ovarian
[35] = test system: RPMI-8226 leukemia
[36] = test system: RXF 393 renal
[37] = test system: SF-268 CNS
[38] = test system: SF-295 CNS
[39] = test system: SF-539 CNS
[40] = test system: SK-MEL-2 melanoma
[41] = test system: SK-MEL-28 melanoma
[42] = test system: SK-MEL-5 melanoma
[43] = test system: SK-OV-3 ovarian
[44] = test system: SN12C renal
[45] = test system: SNB-19 CNS
[46] = test system: SNB-75 CNS
[47] = test system: SNB-78 CNS
[48] = test system: SR leukemia
[49] = test system: SW-620 colon
[50] = test system: TK-10 renal
[51] = test system: U251 CNS
[52] = test system: UACC-257 melanoma
[53] = test system: UACC-62 melanoma
[54] = test system: UO-31 renal
[55] = test system: XF 498 CNS
[56] = test system: A498 renal
[57] = test system: HCC-2998 colon
[58] = test system: MALME-3M melanoma

## N#C/C(=C/Sc1ccccc1)C(=O)O
[1]
  TGI: 77.9 µM
[2]
  TGI: > 100 µM
[3]
  TGI: > 100 µM
[4]
  TGI: 79.5 µM
[5]
  TGI: > 100 µM
[6]
  TGI: 47.5 µM
[7]
  TGI: > 100 µM
[8]
  TGI: 35.8 µM
[9]
  TGI: 72.6 µM
[10]
  TGI: > 100 µM
[11]
  TGI: 55.8 µM
[12]
  TGI: > 100 µM
[13]
  TGI: > 100 µM
[14]
  TGI: > 100 µM
[15]
  TGI: > 100 µM
[16]
  TGI: > 100 µM
[17]
  TGI: 84.1 µM
[18]
  TGI: 37.2 µM
[19]
  TGI: > 100 µM
[20]
  TGI: 99.3 µM
[21]
  TGI: 91.2 µM
[22]
  TGI: 24.5 µM
[23]
  TGI: > 100 µM
[24]
  TGI: 57.2 µM
[25]
  TGI: 74 µM
[26]
  TGI: > 100 µM
[27]
  TGI: 58.7 µM
[28]
  TGI: > 100 µM
[29]
  TGI: > 100 µM
[30]
  TGI: 23.4 µM
[31]
  TGI: 78.5 µM
[32]
  TGI: > 100 µM
[33]
  TGI: 74.6 µM
[34]
  TGI: 36.9 µM
[35]
  TGI: > 100 µM
[36]
  TGI: 58.2 µM
[37]
  TGI: 53.7 µM
[38]
  TGI: > 100 µM
[39]
  TGI: 35.2 µM
[40]
  TGI: 72.3 µM
[41]
  TGI: > 100 µM
[42]
  TGI: > 100 µM
[43]
  TGI: > 100 µM
[44]
  TGI: 57.5 µM
[45]
  TGI: > 100 µM
[46]
  TGI: 55.9 µM
[47]
  TGI: 59.5 µM
[48]
  TGI: > 100 µM
[49]
  TGI: > 100 µM
[50]
  TGI: > 100 µM
[51]
  TGI: 45.9 µM
[52]
  TGI: > 100 µM
[53]
  TGI: > 100 µM
[54]
  TGI: 41.4 µM
[55]
  TGI: > 100 µM

## Fc1cccc2c1cc1ccc3cccc4ccc2c1c34
[1]
  TGI: > 100 µM
[56]
  TGI: > 100 µM
[2]
  TGI: > 100 µM
[3]
  TGI: > 100 µM
[4]
  TGI: > 100 µM
[5]
  TGI: > 100 µM
[6]
  TGI: > 100 µM
[7]
  TGI: > 100 µM
[9]
  TGI: > 100 µM
[10]
  TGI: > 100 µM
[57]
  TGI: > 100 µM
[11]
  TGI: > 100 µM
[13]
  TGI: > 100 µM
[14]
  TGI: > 100 µM
[15]
  TGI: > 100 µM
[16]
  TGI: > 100 µM
[17]
  TGI: > 100 µM
[18]
  TGI: > 100 µM
[19]
  TGI: > 100 µM
[20]
  TGI: > 100 µM
[21]
  TGI: > 100 µM
[22]
  TGI: > 100 µM
[23]
  TGI: > 100 µM
[24]
  TGI: > 100 µM
[25]
  TGI: > 100 µM
[58]
  TGI: > 100 µM
[26]
  TGI: > 100 µM
[27]
  TGI: > 100 µM
[28]
  TGI: > 100 µM
[30]
  TGI: > 100 µM
[31]
  TGI: > 100 µM
[32]
  TGI: > 100 µM
[33]
  TGI: > 100 µM
[34]
  TGI: > 100 µM
[36]
  TGI: > 100 µM
[37]
  TGI: > 100 µM
[38]
  TGI: > 100 µM
[39]
  TGI: > 100 µM
[40]
  TGI: > 100 µM
[41]
  TGI: > 100 µM
[42]
  TGI: > 100 µM
[43]
  TGI: > 100 µM
[44]
  TGI: > 100 µM
[45]
  TGI: > 100 µM
[46]
  TGI: > 100 µM
[47]
  TGI: > 100 µM
[48]
  TGI: > 100 µM
[49]
  TGI: > 100 µM
[50]
  TGI: > 100 µM
[51]
  TGI: > 100 µM
[52]
  TGI: > 100 µM
[53]
  TGI: > 100 µM
[54]
  TGI: > 100 µM
[55]
  TGI: > 100 µM

## COc1ccc(OC)c(CC(C)N)c1 (stereo not given)
[1]
  TGI: > 100 µM
[56]
  TGI: > 100 µM
[2]
  TGI: > 100 µM
[3]
  TGI: > 100 µM
[4]
  TGI: > 100 µM
[5]
  TGI: > 100 µM
[6]
  TGI: > 100 µM
[7]
  TGI: > 100 µM
[8]
  TGI: > 100 µM
[10]
  TGI: > 100 µM
[57]
  TGI: > 100 µM
[11]
  TGI: > 100 µM
[12]
  TGI: > 100 µM
[14]
  TGI: > 100 µM
[15]
  TGI: > 100 µM
[17]
  TGI: > 100 µM
[18]
  TGI: > 100 µM
[19]
  TGI: > 100 µM
[20]
  TGI: > 100 µM
[21]
  TGI: > 100 µM
[22]
  TGI: > 100 µM
[23]
  TGI: > 100 µM
[24]
  TGI: > 100 µM
[25]
  TGI: > 100 µM
[58]
  TGI: > 100 µM
[26]
  TGI: > 100 µM
[27]
  TGI: > 100 µM
[28]
  TGI: > 100 µM
[29]
  TGI: > 100 µM
[30]
  TGI: > 100 µM
[31]
  TGI: > 100 µM
[32]
  TGI: > 100 µM
[34]
  TGI: > 100 µM
[35]
  TGI: > 100 µM
[36]
  TGI: > 100 µM
[37]
  TGI: > 100 µM
[38]
  TGI: > 100 µM
[39]
  TGI: > 100 µM
[40]
  TGI: > 100 µM
[41]
  TGI: > 100 µM
[42]
  TGI: > 100 µM
[43]
  TGI: > 100 µM
[44]
  TGI: > 100 µM
[45]
  TGI: > 100 µM
[46]
  TGI: > 100 µM
[49]
  TGI: > 100 µM
[50]
  TGI: > 100 µM
[51]
  TGI: > 100 µM
[52]
  TGI: > 100 µM
[53]
  TGI: > 100 µM
[54]
  TGI: > 100 µM
[55]
  TGI: > 100 µM

## OC1C2CCC1C1C3C=CC(C3)C21 (stereo not given)
[1]
  TGI: > 100 µM
[2]
  TGI: > 100 µM
[3]
  TGI: > 100 µM
[4]
  TGI: > 100 µM
[5]
  TGI: > 100 µM
[6]
  TGI: > 100 µM
[7]
  TGI: > 100 µM
[8]
  TGI: > 100 µM
[9]
  TGI: > 100 µM
[10]
  TGI: > 100 µM
[11]
  TGI: > 100 µM
[12]
  TGI: > 100 µM
[13]
  TGI: > 100 µM
[14]
  TGI: > 100 µM
[15]
  TGI: > 100 µM
[16]
  TGI: > 100 µM
[17]
  TGI: > 100 µM
[18]
  TGI: > 100 µM
[19]
  TGI: > 100 µM
[20]
  TGI: > 100 µM
[21]
  TGI: > 100 µM
[22]
  TGI: > 100 µM
[23]
  TGI: > 100 µM
[24]
  TGI: > 100 µM
[25]
  TGI: > 100 µM
[58]
  TGI: > 100 µM
[26]
  TGI: > 100 µM
[27]
  TGI: > 100 µM
[28]
  TGI: > 100 µM
[29]
  TGI: > 100 µM
[30]
  TGI: > 100 µM
[31]
  TGI: > 100 µM
[32]
  TGI: > 100 µM
[33]
  TGI: > 100 µM
[34]
  TGI: > 100 µM
[35]
  TGI: > 100 µM
[36]
  TGI: > 100 µM
[37]
  TGI: > 100 µM
[38]
  TGI: > 100 µM
[40]
  TGI: > 100 µM
[41]
  TGI: > 100 µM
[42]
  TGI: > 100 µM
[43]
  TGI: > 100 µM
[45]
  TGI: > 100 µM
[46]
  TGI: > 100 µM
[47]
  TGI: > 100 µM
[48]
  TGI: > 100 µM
[49]
  TGI: > 100 µM
[50]
  TGI: > 100 µM
[51]
  TGI: > 100 µM
[52]
  TGI: > 100 µM
[53]
  TGI: > 100 µM
[54]
  TGI: > 100 µM
[55]
  TGI: > 100 µM
